Assay results taken from PubChem BioAssay (NCI).
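These data come from cells grown in 96-well plates and exposed to compound for 48 hours at five concentrations. At the GI50, growth is halved. Definition used: TGI = concentration required for complete inhibition of growth.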

Experiments:
Assay in all cases: growth of human tumour cells (NCI), 48 h
ACHN renal = tested on: ACHN renal
HL-60(TB) leukemia = tested on: HL-60(TB) leukemia
KM12 colon = tested on: KM12 colon
M14 melanoma = tested on: M14 melanoma
NCI-H226 lung = tested on: NCI-H226 lung
NCI-H23 lung = tested on: NCI-H23 lung
SF-539 CNS = tested on: SF-539 CNS
UACC-257 melanoma = tested on: UACC-257 melanoma
MCF7 breast = tested on: MCF7 breast
NCI/ADR-RES ovarian = tested on: NCI/ADR-RES ovarian

| SMILES | TGI (ACHN renal) [µM] | TGI (HL-60(TB) leukemia) [µM] | TGI (KM12 colon) [µM] | TGI (M14 melanoma) [µM] | TGI (NCI-H226 lung) [µM] | TGI (NCI-H23 lung) [µM] | TGI (SF-539 CNS) [µM] | TGI (UACC-257 melanoma) [µM] | GI50 (ACHN renal) [µM] | GI50 (HL-60(TB) leukemia) [µM] | GI50 (KM12 colon) [µM] | GI50 (MCF7 breast) [µM] | TGI (MCF7 breast) [µM] | GI50 (NCI-H23 lung) [µM] | GI50 (NCI/ADR-RES ovarian) [µM] | TGI (NCI/ADR-RES ovarian) [µM] | GI50 (SF-539 CNS) [µM] | GI50 (UACC-257 melanoma) [µM] |
| --- | --- | --- | --- | --- | --- | --- | --- | --- | --- | --- | --- | --- | --- | --- | --- | --- | --- | --- |
| O=C1C=C(Nc2cc(Cl)ccc2Cl)c2ccccc2C1=O | > 100 | 40.9 | 55.7 | 38.9 | 47.8 | 39.3 | > 100 | 41.8 | – | – | – | – | – | – | – | – | – | – |
| COc1ccc(N=Nc2c(-c3ccccc3)nn(C(=O)CC(=O)Nc3ccc(OC)cc3)c2-c2ccccc2)cc1 | > 100 | > 100 | > 100 | – | > 100 | > 100 | 59 | > 100 | – | – | – | – | – | – | – | – | – | – |
| Oc1ccc(I)c2cccnc12 | > 100 | 5.76 | > 100 | 25.4 | 41.8 | 55.2 | > 100 | 73.8 | – | – | – | – | – | – | – | – | – | – |
| N#C/C(=C\c1ccc(O)c(O)c1)C(=O)NCc1cccc(C(F)(F)F)c1 | 35.2 | 92.3 | 19.6 | – | – | 31.5 | 17 | 52.5 | 5.53 | 4.73 | 4.04 | 19.8 | > 100 | 12.2 | 10.1 | 34.6 | 3.51 | 12.2 |
| NNC(=O)N/N=C(/CC1(O)C(=O)Nc2ccc(Br)cc21)c1ccccc1 (centres undefined) | > 100 | 51.7 | 87.5 | > 100 | > 100 | > 100 | > 100 | > 100 | – | – | – | – | – | – | – | – | – | – |
| COC12OCCN(C)C1=CC(=O)C1N=NCC12 (centres undefined) | – | > 100 | > 100 | > 100 | > 100 | > 100 | > 100 | > 100 | – | – | – | – | – | – | – | – | – | – |
| Nc1nc2c(ncn2C2OC(CO)C(O)C2O)c(=O)o1 (centres undefined) | > 100 | > 100 | > 100 | > 100 | > 100 | > 100 | > 100 | > 100 | – | – | – | – | – | – | – | – | – | – |
| CCCCN(CCCC)CC(C(=O)Nc1ccc([N+](=O)[O-])cc1[N+](=O)[O-])/C(C)=N\NC(=O)c1ccncc1 (centres undefined) | > 100 | > 100 | – | > 100 | – | > 100 | > 100 | > 100 | – | – | – | – | – | – | – | – | – | – |
| NC(=S)N/N=C/C(O[C@@H](/C=N/NC(N)=S)CO)n1cnc2c(N)ncnc21 (some centres undefined) | > 100 | > 100 | > 100 | > 100 | > 100 | > 100 | > 100 | > 100 | – | – | – | – | – | – | – | – | – | – |
| C/C(=C\CNc1ncnc2c1ncn2C1CCCCO1)COP(=O)(O)O (centres undefined) | > 100 | > 100 | > 100 | > 100 | > 100 | > 100 | > 100 | > 100 | – | – | – | – | – | – | – | – | – | – |
| O=C1CCC2(c3ccccc3)OCC([C@@H](O)c3ccccc3)N12 (some centres undefined) | > 100 | – | > 100 | – | – | > 100 | > 100 | > 100 | – | – | – | – | – | – | – | – | – | – |
